Test results reported in patent EP4768487A1, “FUSED LACTAM RING COMPOUND AND USE THEREOF” (Chengdu Zenitar Biomedical Technology Co., Ltd., priority 2023, dated 2025).
Where two headings read alike, the source gives them in different places.

Assays:
[1] = system: BRCA wild-type DLD-1 cells; test: Anti-proliferative activity against cells (CCK8): DLD-1; assay type: cell-based; conditions: Homo sapiens, 72 h + 96 h culture
Method in brief: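 DLD-1 cells (1000/well) in RPMI-1640 with 10% FBS, treated 24 h after plating with PARPi at 0, 1 or 10 µM final. Cultured 72 h, medium exchanged with re-added PARPi, then a further 96 h; read-out by CCK8.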

[2] = Cerebrospinal fluid and plasma distribution in vivo; conditions: rat, male rats, intravenous 5 mg/kg, n = 1
Experimental: Experimental procedures: The compound was weighed out, a small amount of DMSO was added, and then a sodium chloride solution for injection was added to prepare a 5 mg·mL^-1 compound solution for later administration. […] 10 µL of the plasma and 10 µL of the cerebrospinal fluid were each added to a centrifuge tube, and 40 µL of acetonitrile containing 20 ng·mL^-1 internal standard SAHA was added for precipitation. […] The supernatant was collected and transferred to a sample vial for later analysis. Range of standard curve: 1-1000 ng·mL^-1.

[3] = target: T1, hERG potassium ion channel (Homo sapiens, UniProt Q12809); test: Inhibition of hERG potassium ion channel (Qpatch, CHO cells stably expressing hERG); assay type: cell-based; conditions: for inhibitory effects on the hERG potassium ion channel (in words): conclusion of Table 17; for inhibition at 2.5 min, 20 µM: human, CHO cells stably expressing hERG, read-out: Inhibition rate at 20 µM
T1 construct: expressed in transfected cells; host or cells: CHO cells
T1 sequence (Q12809 whole entry): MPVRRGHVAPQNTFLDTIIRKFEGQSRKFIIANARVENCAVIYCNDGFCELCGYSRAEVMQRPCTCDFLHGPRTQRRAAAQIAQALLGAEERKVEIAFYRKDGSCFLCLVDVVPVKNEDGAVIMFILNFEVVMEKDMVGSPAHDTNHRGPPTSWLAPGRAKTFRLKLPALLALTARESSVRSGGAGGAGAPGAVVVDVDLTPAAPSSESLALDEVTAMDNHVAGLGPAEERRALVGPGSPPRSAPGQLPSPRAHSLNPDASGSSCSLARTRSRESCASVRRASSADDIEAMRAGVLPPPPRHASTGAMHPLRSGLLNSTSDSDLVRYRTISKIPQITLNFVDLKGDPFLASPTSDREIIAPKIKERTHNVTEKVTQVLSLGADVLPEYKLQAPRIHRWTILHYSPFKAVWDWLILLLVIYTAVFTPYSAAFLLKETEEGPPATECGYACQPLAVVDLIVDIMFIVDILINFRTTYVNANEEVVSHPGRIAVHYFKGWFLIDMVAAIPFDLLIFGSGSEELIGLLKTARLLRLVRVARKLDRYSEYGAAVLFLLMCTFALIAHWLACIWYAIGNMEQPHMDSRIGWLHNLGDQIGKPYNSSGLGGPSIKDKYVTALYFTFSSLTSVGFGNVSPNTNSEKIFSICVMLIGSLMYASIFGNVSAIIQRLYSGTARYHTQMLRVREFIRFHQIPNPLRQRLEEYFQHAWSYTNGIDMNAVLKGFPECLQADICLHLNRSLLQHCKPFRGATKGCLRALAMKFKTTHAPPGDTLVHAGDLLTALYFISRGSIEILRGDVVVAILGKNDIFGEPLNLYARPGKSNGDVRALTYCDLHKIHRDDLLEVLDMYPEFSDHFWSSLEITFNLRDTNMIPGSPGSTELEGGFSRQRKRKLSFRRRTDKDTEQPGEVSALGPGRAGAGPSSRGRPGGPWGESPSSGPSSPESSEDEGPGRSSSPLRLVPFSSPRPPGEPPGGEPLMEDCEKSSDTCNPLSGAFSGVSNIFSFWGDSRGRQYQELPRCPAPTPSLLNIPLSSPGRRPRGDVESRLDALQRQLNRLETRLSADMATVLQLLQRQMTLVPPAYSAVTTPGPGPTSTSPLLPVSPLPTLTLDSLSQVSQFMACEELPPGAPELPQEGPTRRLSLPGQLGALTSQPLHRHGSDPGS
Experimental: Cell culture and treatment: CHO cells stably expressing hERG were cultured in a cell culture flask and incubated in an incubator with 5% CO2 at 37 °C. When the cell density reached 60%-80%, the cell culture medium was removed by pipetting. The cells were washed once with PBS, and then Detachin was added for detachment. After complete detachment, a culture medium was added for neutralization. The cells were then centrifuged, and the supernatant was removed by pipetting. A culture medium was further added for resuspension, and the cell density was adjusted to (2-5) × 10^6 cells/mL for later use.
Compound preparation: The compound stock solution was diluted with 100% DMSO. Specifically, 10 µL of the compound stock solution was added to 20 µL of DMSO, followed by a 3-fold serial dilution to obtain 6 concentrations. 4 µL of each of the 6 compound solutions at different concentrations was taken and added to 396 µL of an extracellular fluid, resulting in a 100-fold dilution to obtain 6 intermediate concentrations. Then, 80 µL of each of the 6 intermediate-concentration compound solutions was taken and added to 320 µL of an extracellular fluid, resulting in a 5-fold dilution to achieve the final test concentrations. The highest test concentration was 40 µM. […] DMSO at this concentration has no effect on the hERG potassium channel. During the compound preparation, the entire dilution process was completed by a Bravo instrument.
Electrophysiological recording process: The single-cell high-impedance sealing and whole-cell mode formation processes were all completed automatically by a Qpatch instrument. After achieving the whole-cell recording mode, the cells were clamped at -80 mV. Before a 5-second +40 mV depolarizing stimulus was applied, a 50-millisecond -50 mV prepulse voltage was first applied. The potential was then repolarized to -50 mV and held for 5 s, and finally returned to -80 mV. This voltage stimulation was applied every 15 s. After 2 min of recording, the extracellular fluid was administered, followed by recording for 5 min. Then, the compound administration process began, starting from the lowest test compound concentration. Each test concentration was applied for 2.5 min. After all the concentrations were applied consecutively, the positive control compound, 3 µM Cisapride, was administered. At least 3 cells (n ≥ 3) were tested for each concentration.
Data processing: Data analysis and processing were performed using GraphPad Prism 5.0 and Excel software. The IC50 of the compound was calculated using GraphPad Prism 5 software by equation fitting as follows: Y = Bottom + (Top−Bottom)/(1+10^(∧)((LogIC50−X)*HillSLope)) [formula] where X is the Log value of the test concentration of the test sample, Y is the inhibition percentage at the corresponding concentration, and Bottom and Top are the minimum and maximum inhibition percentages, respectively. Table 17. Results of inhibition of hERG potassium ion channel by compounds

[4] = system: CD34+ hematopoietic stem and progenitor cells (hmPB34-P-SC); test: Hematological toxicity assay (CellTiter-Glo 2.0); assay type: cell-based; conditions: 120 h; 5 days of culture
Experimental: The next day, the cells were resuspended and seeded in a 96-well plate at a concentration of 1000 cells/well, and meanwhile, different concentrations of the drug were added for treatment, with 3 replicate wells set for each concentration. After 5 days of culture, the number of viable cells in each well was determined using a CellTiter-Glo 2.0 kit, followed by detection by a microplate reader.

PARP1 = target: T2, PARP1 (Homo sapiens, UniProt P09874); test: PARP1 enzyme assay (histone-coated plate, chemiluminescence); assay type: biochemical; conditions: PARP1 0.02 nM, DNA 0.8 nM, NAD+ 3.5 µM; read-out: PARP-1 IC50
T2 construct: purchased BPS 80501
T2 sequence (P09874 whole entry): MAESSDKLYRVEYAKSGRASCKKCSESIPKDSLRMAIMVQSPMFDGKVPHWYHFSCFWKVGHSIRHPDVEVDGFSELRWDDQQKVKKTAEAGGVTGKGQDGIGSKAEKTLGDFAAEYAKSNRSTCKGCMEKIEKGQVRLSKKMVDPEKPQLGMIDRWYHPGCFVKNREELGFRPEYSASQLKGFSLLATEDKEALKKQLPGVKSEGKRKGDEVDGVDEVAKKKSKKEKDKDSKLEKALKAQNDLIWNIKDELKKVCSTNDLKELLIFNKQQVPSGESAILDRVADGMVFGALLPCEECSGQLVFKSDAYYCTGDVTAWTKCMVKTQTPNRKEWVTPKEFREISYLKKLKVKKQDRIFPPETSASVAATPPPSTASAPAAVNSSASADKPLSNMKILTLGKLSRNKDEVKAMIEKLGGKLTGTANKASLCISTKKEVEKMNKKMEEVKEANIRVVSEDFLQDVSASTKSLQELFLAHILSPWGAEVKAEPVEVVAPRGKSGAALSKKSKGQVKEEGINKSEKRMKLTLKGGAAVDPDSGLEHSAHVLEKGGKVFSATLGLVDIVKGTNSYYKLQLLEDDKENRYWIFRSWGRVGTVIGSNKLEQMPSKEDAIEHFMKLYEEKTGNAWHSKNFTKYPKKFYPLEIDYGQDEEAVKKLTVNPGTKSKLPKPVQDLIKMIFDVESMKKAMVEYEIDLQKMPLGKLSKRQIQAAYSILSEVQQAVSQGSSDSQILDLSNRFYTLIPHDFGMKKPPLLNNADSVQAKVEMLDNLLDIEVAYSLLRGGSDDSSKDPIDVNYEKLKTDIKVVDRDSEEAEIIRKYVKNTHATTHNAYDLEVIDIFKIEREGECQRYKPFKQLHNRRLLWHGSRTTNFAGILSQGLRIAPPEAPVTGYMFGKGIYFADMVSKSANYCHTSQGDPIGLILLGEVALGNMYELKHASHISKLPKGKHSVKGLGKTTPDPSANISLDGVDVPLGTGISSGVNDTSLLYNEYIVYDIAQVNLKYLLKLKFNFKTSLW

[5] = system: BRCA-mutated MDA-MB-436 cells; test: Anti-proliferative activity against cells (CCK8): MDA-MB-436; assay type: cell-based; conditions: Homo sapiens, 72 h + 96 h culture
[6] = Pharmacokinetic evaluation in Balb/c mice; assay type: in vivo; conditions: 1mg/kg, PO; for AUC(0-t) / Cmax / half-life: male, mouse, plasma
Experimental: Experimental objective: To understand the pharmacokinetic profiles of the compounds. Experimental basis: Technical guidelines for non-clinical pharmacokinetic studies of chemical drugs, 2014.
Experimental scheme: The pharmacokinetic profiles of the compounds were investigated by intravenous administration (1 mg·kg^-1) and intragastric administration (1 mg·kg^-1) in Balb/c mice.
Sample preparation: About 0.2 mg of the compound was weighed out and dissolved in 10 µL of DMSO, and then a sodium chloride solution for injection was added to prepare a 0.1 mg·mL^-1 compound solution for later administration.
Three of the mice were subjected to intravenous administration (IV) at 1 mg·kg^-1, while the other three were subjected to intragastric administration (PO) at 1 mg·kg^-1. About 0.05 mL of blood was collected at 5 min, 15 min, 30 min, 1 h, 2 h, 4 h, 6 h, 8 h, 10 h, 24 h, and 48 h after administration. The collected blood was centrifuged at 3500 rpm for 15 min. The supernatant plasma was then collected and cryopreserved at -40 °C for later analysis. The plasma concentration was quantitatively analyzed using the LC-MS/MS method, and pharmacokinetic parameters such as […] (Cmax), area under plasma concentration-time curve (AUC(0-t)), half-life (T1/2), clearance rate (CL), tissue distribution (Vdss), and bioavailability (F) were calculated. Table 18. Results of pharmacokinetic test of compounds in Balb/c mice

[7] = system: MDA-MB-436 breast cancer subcutaneous xenograft tumor model; test: In vivo pharmacodynamic study of compound 53 in MDA-MB-436 subcutaneous xenograft tumor model; set-up: species or system NOD/SCID mice; conditions: oral once daily, 30 days; for inhibitory effects on tumor growth (in words): compared to blank control
[8] = system: MDA-MB-436 breast cancer subcutaneous xenograft tumor model; test: In vivo pharmacodynamic study of compound 2 in MDA-MB-436 subcutaneous xenograft tumor model; conditions: 100 mg/kg, oral once daily, 30 days
Experimental: Experimental process: Twenty-four female NOD/SCID mice were used in the experiment. […] All groups were subjected to oral administration once daily. Meanwhile, the mice were weighed every 2 days, and the length and width of the tumors were measured with a vernier caliper. After 30 days of administration, the tumor-bearing mice were anesthetized and sacrificed. The tumor tissues were dissected, weighed, and photographed, and the tumor growth inhibition rates were calculated.

[9] = cerebrospinal fluid, read-out: Cerebrospinal fluid

IC50 [1] [nM]	IC50 (PARP1) [nM]	IC50 [5] [nM]	SMILES	IC50 [4] [nM]	further results
> 1000	≤ 50	6.5	CNC(=O)c1ccc(N2CCN(C[C@H]3CCc4nc(C)c(=O)[nH]c4C3)CC2)c(Cl)n1 [Example 106, (S)-6-Chloro-N-methyl-5-(4-((2-methyl-3-oxo-3,4,5,6,7,8-hexahydroquinoxalin-6-yl)methyl)piperazin-1-yl)picolinamide]	> 1000	–
> 1000	≤ 50	8.5	CNC(=O)c1ccc(N2CCN(CC3Cc4[nH]c(=O)c(SC)cc4CO3)CC2)c(C)n1 (centres unmarked) [Example 87, N,6-Dimethyl-5-(4-((3-(methylthio)-2-oxo-1,5,7,8-tetrahydro-2H-pyrano[4,3-b]pyridin-7-yl)methyl)piperazin-1-yl)picolinamide]	–	inhibitory effects on the hERG potassium ion channel (in words) [3]: Conclusion: Compounds 2, 6, 45, 62, 67, 74, 83, 87, etc., of the present disclosure exhibited relatively weak inhibitory effects on the hERG potassium ion channel.; inhibition at 2.5 min, 20 µM [3]: 7.34%
> 1000	≤ 50	3.9	Cc1cc2c([nH]c1=O)CC(CN1CCN(c3ccc(C(=O)Nc4cnn(C)c4)nc3F)CC1)OC2 (centres unmarked) [Example 77, 6-Fluoro-N-(1-methyl-1H-pyrazol-4-yl)-5-(4-((3-methyl-2-oxo-1,5,7,8-tetrahydro-2H-pyrano[4,3-b]pyridin-7-yl)methyl)piperazin-1-yl)picolinamide]	307	–
–	–	–	CNC(=O)c1ccc(N2CCN(Cc3ccc4nc(C)c(=O)[nH]c4c3F)CC2)c(F)n1 [AZD9574, reference compound]	–	inhibitory effects on tumor growth (in words) ([7]; 3 mg/kg): significant inhibitory effects on tumor growth
> 1000	≤ 50	4.1	Cc1nc2c([nH]c1=O)C[C@@H](CN1CCN(c3ccc(C(=O)NC4CC4)nc3F)CC1)CC2 [Example 81, (S)-N-Cyclopropyl-6-fluoro-5-(4-((2-methyl-3-oxo-3,4,5,6,7,8-hexahydroquinoxalin-6-yl)methyl)piperazin-1-yl)picolinamide]	> 1000	–
–	–	–	O=C(c1cc(Cc2n[nH]c(=O)c3ccccc23)ccc1F)N1CCN(C(=O)C2CC2)CC1 [Olaparib, reference compound]	200	tumor growth inhibition rate [8]: 65.81%
> 1000	≤ 50	7	[2H]C([2H])([C@H]1CCc2nc(C)c(=O)[nH]c2C1)N1CCN(c2ccc(C(=O)NC)nc2Cl)CC1 [Example 85, (S)-6-Chloro-N-methyl-5-(4-((2-methyl-3-oxo-3,4,5,6,7,8-hexahydroquinoxalin-6-yl)methyl-d2)piperazin-1-yl)picolinamide]	> 1000	–

SMILES	IC50 [1] [nM]	IC50 (PARP1) [nM]	IC50 [5] [nM]	IC50 [4] [nM]	further results
[2H]C([2H])([C@H]1CCc2nc(C)c(=O)[nH]c2C1)N1CCN(c2ccc(C(=O)NC)nc2F)CC1 [Example 83, (S)-6-Fluoro-N-methyl-5-(4-((2-methyl-3-oxo-3,4,5,6,7,8-hexahydroquinoxalin-6-yl)methyl-d 2)piperazin-1-yl)picolinamide]	> 1000	–	–	–	concentration at 0.25 h [2, 9]: 86 ng/g; concentration at 2 h [2, 9]: 0 ng/g; concentration at 0.25 h ([2]; plasma, read-out: Plasma): 1500 ng/mL; concentration at 2 h ([2]; plasma, read-out: Plasma): 28 ng/mL; inhibitory effects on the hERG potassium ion channel (in words) [3]: Conclusion: Compounds 2, 6, 45, 62, 67, 74, 83, 87, etc., of the present disclosure exhibited relatively weak inhibitory effects on the hERG potassium ion channel.; inhibition at 2.5 min, 20 µM [3]: 0.92%
C=Cc1cc2c([nH]c1=O)CC(CN1CCN(c3ccc(C(=O)NC)nc3F)CC1)OC2 (centres unmarked) [Example 67, 6-Fluoro-N-methyl-5-(4-((2-oxo-3-vinyl-1,5,7,8-tetrahydro-2H-pyrano[4,3-b]pyridin-7-yl)methyl)piperazin-1-yl)picolinamide]	> 1000	≤ 50	–	> 1000	inhibitory effects on the hERG potassium ion channel (in words) [3]: Conclusion: Compounds 2, 6, 45, 62, 67, 74, 83, 87, etc., of the present disclosure exhibited relatively weak inhibitory effects on the hERG potassium ion channel.; inhibition at 2.5 min, 20 µM [3]: 4.18%
CNC(=O)c1ccc(C2=CCN(CC3Cc4[nH]c(=O)c(C5CC5)cc4CO3)CC2)c(F)n1 (centres unmarked) [Example 51, 1'-((3-Cyclopropyl-2-oxo-1,5,7,8-tetrahydro-2H-pyrano[4,3-b]pyridin-7-yl)methyl)-2-fluoro-N-methyl-1',2',3',6'-tetrahydro-[3,4'-bipyridine]-6-carboxamide]	> 1000	50 to 500	160	> 1000	concentration at 0.25 h [2, 9]: 53 ng/g; concentration at 2 h [2, 9]: 25 ng/g; concentration at 0.25 h ([2]; plasma, read-out: Plasma): 41900 ng/mL; concentration at 2 h ([2]; plasma, read-out: Plasma): 21700 ng/mL; CL [6]: 0.17 mL/min/kg; Vdss [6]: 0.04 L/kg; AUC(0-t) [6]: 96800 ng·h/mL; Cmax [6]: 6280 ng/mL; half-life [6]: 15.9 h
CCc1nc2c([nH]c1=O)C[C@@H](CN1CC=C(c3ccc(C(=O)NC)nc3F)CC1)CC2 [Example 53, (S)-1'-((2-Ethyl-3-oxo-3,4,5,6,7,8-hexahydroquinoxalin-6-yl)methyl)-2-fluoro-N-methyl-1',2', 3',6'-tetrahydro-[3,4'-bipyridine]-6-carboxamide]	> 1000	≤ 50	1.5	–	anti-tumor effect compared with the AZD9574 (3 mg/kg) group (in words) ([7]; 1 mg/kg): superior; inhibitory effects on tumor growth (in words) ([7]; 1 mg/kg): significant inhibitory effects on tumor growth; CL [6]: 0.67 mL/min/kg; Vdss [6]: 0.42 L/kg; AUC(0-t) [6]: 22300 ng·h/mL; Cmax [6]: 3650 ng/mL; half-life [6]: 7.1 h
